Data set [1] concerns CD8^+ T cells in human PBMCs (HLA-A201^+). In words: MHC class I tetramer assay. Type of data set: cell-based. Particulars: human PBMC (HLA-A201^+), 30 nM tetramer, 20 minutes; FIG. 3. The protocol: Human PBMCs were treated with MHC class I tetramers binding with Peptide 1 (SEQ ID NO: 1) or Peptide 12 (SEQ ID NO: 12) for 20 minutes, co-stained with anti-CD8 antibodies, and then analyzed with a flow cytometer. Results are presented as mean with error bars representing standard error (n=3). *p<0.05.
MHC class I tetramer assay. […] Then, 50 µL of the obtained folded monomer were mixed with the equivalent of 2.1 μL of a 0.2 mg/mL streptavidin-fluorophore and incubated in the dark at 4° C. for at least 1 hour to tetramerized the monomer. The tetramer was diluted to 30 nM in FACS buffer (PBS with 1% v/v BSA and 0.1% v/v NaN3) for staining of human T cells.
Next, around 1-2×10^5 human peripheral blood mononuclear cells (PBMCs, HLA-A201^+) ([…] Technologies Inc, Vancouver, British Columbia, Canada) in FACS buffer were seeded onto a 96-well microplate. The cells were centrifuged at 700×g for 3 minutes, and the supernatant was removed. The cells were resuspended with 40 μL of the diluted tetramer and incubated in the dark at room temperature (RT) for 20 minutes. The cells were washed once in cold FACS buffer and centrifuged at 700×g for 3 minutes. […] The cells were washed twice in cold FACS buffer, resuspended in FACS buffer, and analyzed in a flow cytometer (BD LSRFortessa™X20, Franklin Lakes, N.J., U.S.).

Data set [2] has as its system Human SARS-CoV-2 Spike (trimer). In words: Immunization of mice, anti-spike IgG ELISA. The format is in vivo. Conditions: Day 41 vs Day -1, BALB/c mice. On the technique in general: In an ELISA, binding on a coated surface is turned into a signal by an enzyme label.
Data set [3] can be described thus: Immunization of mice, total IgG ELISA. Type of data set: in vivo, BALB/c mice. Conditions: for total IgG antibodies: BALB/c mice, ***p<0.001. As for the experimental part: Immunization of mice. To determine the immunogenicity of the antigen peptides of the present invention, Peptide 1 (SEQ ID NO: 1) of the present invention were used as an example for mice model. Ten (10) female BALB/c mice (7-9 weeks old) supplied by Envigo (Indianapolis, Ind., USA) were intramuscularly injected with 3 shots of 45 μg Peptide 1 (SEQ ID NO: 1) at 2 weeks apart (on Days 0, 14, and 28). Serum was collected before the day of each immunization (on Days−1, 13, and 27). Terminal blood collection was performed on Day 41. Isolated serum was stored at −80° C. until serological analysis. Serum samples collected one day prior to the first injection (on Day−1, pre-dose group) and serum samples collected 2 weeks after the third injection (on Day 41, post-dose group) were used for anti-spike IgG ELISA assay.
Total IgG ELISA. IgG (Total) Mouse Uncoated ELISA kit (Cat. No. 88-50400, Thermo Fisher Scientific, MA, USA) was used for total IgG ELISA according to manufacturer's instruction. Briefly, Nunc™ MaxiSorp™ 9018 ELISA plate was coated with 100 μL/well of capture antibody in Coating Buffer and incubated overnight at 4° C. The plate was washed twice with 400 μL/well Wash Buffer. After the wells were blocked with 250 μL of Blocking Buffer and incubated at room temperature for 2 hours, the plate was washed twice. The standards were serially diluted with Assay Buffer A at 2-fold to make the standard curve. Then, 100 μL/well of Assay Buffer A were added to the blank wells, and 90 μL/well of Assay Buffer A were added to the sample wells. Serum samples were diluted at least 10,000-fold in Assay Buffer A, and then 10 μL/well of the prediluted serum samples were added to the appropriate wells. Fifty (50) μL/well of diluted Detection Antibody were added to all wells. Then, the plate was covered and incubated at room temperature for 2 hours, and washed four times after the incubation. […] After that, 100 μL of Stop Solution were added to each well, and the plate was read at OD 450 nm with a microplate reader. […]

For data set [4], the system named is CD4^+ T cells in human PBMCs (HLA-A201^+). Nature of the data set: Intracellular cytokine staining and multiparameter flow cytometry. The format is cell-based. Conditions: Day 12. The protocol: Human PBMCs were treated with Peptide 1 (SEQ ID NO: 1) at the concentrations of 0.4, 2, 10, 50, 250 nM for 12 days and then subject to intracellular cytokine staining and multiparameter flow cytometry.
Human PBMCs were treated with Peptide 12 (SEQ ID NO: 12) at the concentrations of 0.4, 2, 10, 50, 250 nM for 12 days and then subject to intracellular cytokine staining and multiparameter flow cytometry.
Intracellular cytokine staining and multiparameter flow cytometry. Around 1-2×10^5 human PBMCs (HLA-A201^+) ([…] Technologies Inc, Vancouver, British Columbia, Canada) were seeded onto 96-well microplate in X-VIVO 15 medium. […] The culture medium was refreshed every 5 days, and on the 12th day after treatment with the peptides, the cells were collected and stained with anti-CD4-PerCP-Cy5.5 conjugated, IFN-γ-FITC chrome conjugated, and IL4-PE chrome conjugated antibodies according to the manufacturer's instruction. After that, the cells were washed twice in cold FACS buffer, resuspended in FACS buffer, and analyzed in a flow cytometer ((BD LSRFortessa™X20, Franklin Lakes, N.J., U.S.).
In general terms: Flow cytometry measures light scatter and fluorescence of single cells or particles in a stream.

In a further data set the target is HLA-A201 (Homo sapiens, UniProt P04439, D140Y/D185E/D98H/E176V/E277Q/G131W/G231S/I119V/I121R/I166T/I218V/N151K/N90K/P208A/P217A/Q86G/Q94H/R138H/R169H). Nature of the data set: MHC-peptide binding assay (MHC class I refolding assay, easYmer).

Ends that are not written are not given here.

The source of these data is patent US20220370604A1, “PEPTIDE VACCINE FOR VIRUS INFECTION” (Vacino Biotech Co., Ltd., priority 2021, published 2022).

As to KLNSGLSKV [Peptide 12], the “antigen specific cytotoxic T cells (CTLs) detected by MHC class I tetramer staining” value in data set [1] is listed as “can be detected”.

Regarding KLNSGDSKV [Peptide 1], the “anti-spike IgG antibodies” value in data set [2] (intramuscular, 45 μg, FIG. 5B, ***p<0.001) is “induced anti-spike IgG antibodies”; in data set [2] (oral, 200 μg formulated with 1% (v/v) PLCL-PEG-PLCL, FIG. 7B, **p<0.01), “induced anti-spike IgG antibodies”. In addition, in data set [1], the “antigen specific cytotoxic T cells (CTLs) detected by MHC class I tetramer staining” value is on record as “can be detected”. Also, the “total IgG antibodies” value in data set [3] (intramuscular, 45 μg, Days 0, 14, 28, FIG. 5A) is “induced total IgG antibodies”; in data set [3] (oral, 200 μg formulated with 1% (v/v) PLCL-PEG-PLCL, Day 41 vs Day -1, FIG. 7A), “induced total IgG antibodies”. Further, the “total IgG, course over administrations” value in data set [3] (intramuscular, 45 μg, sera on Days -1, 13, 27, 41, FIG. 5A) was “reaches to the plateau after second administration”. Further, in data set [4] (50 nM peptide), the “IL-4 secretion by T helper cells (CD4^+ cells)” value was “higher level”. Also, the “IFN-γ secretion by T helper cells (CD4^+ cells)” value in data set [4] (250 nM peptide) is “higher level”. For the same sequence, the “binding affinity for HLA-A201, times as high as that of CMVpp65495-503 (positive control)” value on HLA-A201 (8.9 nM peptide, FIG. 1, mean fluorescence intensity of peptide-HLA complex) was 1.8 times. Moreover, the “binding affinity for HLA-A201 compared with CMVpp65495-503 (positive control)” value on HLA-A201 (concentration of 3 nM and 8.9 nM, FIG. 1) is recorded as “higher binding affinity for HLA-A201 than CMVpp65495-503”.
